In ChEMBL document CHEMBL6134901 (J Med Chem, 2025) one finds MIC data, which are given here for two compounds.

Holding throughout (assay type): functional
Test [1] relates to Veillonella. Nature of the test: Antibacterial activity against Veillonella sp. HM-49.
Test [2] has as its system Bifidobacterium longum. Put plainly: Antibacterial activity against Bifidobacterium longum HM-846.
Test [3] relates to Klebsiella aerogenes. Nature of the test: Antibacterial activity against Enterobacter aerogenes ATCC 35029.
Test [4] deals with Escherichia coli. Put plainly: Antibacterial activity against Escherichia coli ATCC 25922.
Test [5] concerns Pseudomonas aeruginosa. Put plainly: Antibacterial activity against Pseudomonas aeruginosa ATCC 27853.
For test [6], the system named is Clostridioides difficile. Put plainly: Antibacterial activity against Clostridium difficile RMA23828.
The subject of test [7] is Clostridioides difficile. Put plainly: Antibacterial activity against metronidazole-resistant Clostridium difficile […] clinical isolate.
Test [8] concerns Fusobacterium nucleatum. Put plainly: Antibacterial activity against methicillin/oxacillin/tetracycline-resistant mecA-positive Fusobacterium nucleatum HM-992.
Test [9] relates to Limosilactobacillus reuteri. Nature of the test: Antibacterial activity against vancomycin-susceptible Lactobacillus reuteri HM-102 clinical isolate.
Test [10] relates to Bacteroides fragilis. Put plainly: Antibacterial activity against Bacteroides fragilis HM-709.
Test [11] concerns Klebsiella pneumoniae. Put plainly: Antibacterial activity against Klebsiella pneumoniae ATCC 700603.
For test [12], the system named is Enterococcus faecalis. Nature of the test: Antibacterial activity against Enterococcus faecalis ATCC 29212.
Test [13] concerns Enterococcus faecium. Nature of the test: Antibacterial activity against vancomycin-resistant Enterococcus faecium 106 clinical isolate.
Test [14] has as its system Acinetobacter baumannii. Nature of the test: Antibacterial activity against Acinetobacter baumannii ATCC 17961.
In test [15] the test system is Staphylococcus aureus. Nature of the test: Antibacterial activity against vancomycin-resistant Staphylococcus aureus VRS1 clinical isolate.
Test [16] relates to Clostridioides difficile. Nature of the test: Antibacterial activity against fidaxomicin-resistant Clostridium difficile RMA23691 clinical isolate.
Test [17] has as its system Bacillus cereus. Put plainly: Antibacterial activity against Bacillus cereus ATCC 13061.
Test [18] relates to Staphylococcus aureus. Nature of the test: Antibacterial activity against Staphylococcus aureus ATCC 29213.
For test [19], the system named is Staphylococcus aureus. Nature of the test: Antibacterial activity against Staphylococcus aureus NRS100.
In test [20] the test system is Eubacterium sp. Put plainly: Antibacterial activity against Eubacterium sp. HM-178.
For test [21], the system named is Clostridioides difficile. Nature of the test: Antibacterial activity against Clostridium difficile RMA26675.
The subject of test [22] is Staphylococcus haemolyticus. Nature of the test: Antibacterial activity against Staphylococcus haemolyticus ATCC 29970.
In test [23] the test system is Enterococcus faecium. Nature of the test: Antibacterial activity against vancomycin-susceptible Enterococcus faecium 119-39A.
The test system of test [24] is Lactobacillus gasseri. Nature of the test: Antibacterial activity against Lactobacillus gasseri HM-644.
The test system of test [25] is Staphylococcus aureus. Put plainly: Antibacterial activity against Staphylococcus aureus NRS119.
The subject of test [26] is Staphylococcus epidermidis. Nature of the test: Antibacterial activity against Staphylococcus epidermidis ATCC 35547.

Converted amounts (≈) assume the structure as drawn.

A word on the MIC: it is the least concentration at which growth counts as inhibited. `CN[C@H](CC(C)C)C(=O)N[C@H]1C(=O)N[C@@H](CC(N)=O)C(=O)N[C@H]2C(=O)N[C@H]3C(=O)N[C@H](C(=O)N[C@H](C(=O)O)c4cc(O)cc(O)c4-c4cc3ccc4O)[C@H](O)c3ccc(c(Cl)c3)Oc3cc2cc(c3O[C@@H]2O[C@H](CO)[C@@H](O)[C@H](O)[C@H]2O[C@H]2C[C@](C)(N)[C@H](O)[C@H](C)O2)Oc2ccc(cc2Cl)[C@H]1O` [VANCOMYCIN]: the MIC in [1] was over 32 mg/L; in [2], 0.25 mg/L (≈ 0.173 µM); in test [3], over 128 mg/L; in test [4], over 128 mg/L; in test [5], over 128 mg/L; in test [6], 0.5 mg/L (≈ 0.345 µM). Further, the MIC was 0.25 mg/L (≈ 0.173 µM) in test [7]; 0.25 mg/L (≈ 0.173 µM) in [8]; over 32 mg/L in test [9]; 16 mg/L (≈ 11 µM) in test [10]; over 128 mg/L in test [11]; 2 mg/L (≈ 1.38 µM) in test [12]. The results for the MIC in test [13], in test [14] and in test [15] were over 16 mg/L, over 128 mg/L and 64 mg/L (≈ 44.2 µM), respectively.

Consider `CCc1c(Cl)c(O)c(Cl)c(O)c1C(=O)O[C@H]1[C@H](O)[C@H](OC)[C@H](OC/C2=C\C=C\C[C@H](O)/C(C)=C/[C@H](CC)[C@@H](O[C@@H]3OC(C)(C)[C@@H](OC(=O)C(C)C)[C@H](O)[C@@H]3O)/C(C)=C/C(C)=C/C[C@@H]([C@@H](C)O)OC2=O)O[C@@H]1C` [FIDAXOMICIN], for which the minimum inhibitory concentration (MIC) in test [16] is 4 mg/L (≈ 3.78 µM); in test [1] it was 8 mg/L (≈ 7.56 µM); in [2], 0.01 mg/L (≈ 0.00945 µM); in test [3], over 128 mg/L; in test [17], 16 mg/L (≈ 15.1 µM); in test [18], 16 mg/L (≈ 15.1 µM). Besides, the MIC in test [19] is 16 mg/L (≈ 15.1 µM); in [4], over 128 mg/L; in test [20], 16 mg/L (≈ 15.1 µM); in test [5], over 128 mg/L; in test [6], over 8 mg/L; in test [7], 0.125 mg/L (≈ 0.118 µM). For the same compound, the MIC in test [21] is 4 mg/L (≈ 3.78 µM); in [22], 16 mg/L (≈ 15.1 µM); in [23], over 16 mg/L; in test [8] it was under 0.06 mg/L; in test [9], over 32 mg/L; in test [10], over 32 mg/L. The MIC in test [11] is over 128 mg/L; in test [24] it was 2 mg/L (≈ 1.89 µM); in test [12], over 16 mg/L; in test [13], over 16 mg/L; in [25], 2 mg/L (≈ 1.89 µM); in test [26], 4 mg/L (≈ 3.78 µM). The results for the MIC in [14] and in test [15] were over 128 mg/L and 64 mg/L (≈ 60.5 µM), respectively.
